From US10570184B2, “GLP-1/glucagon receptor co-agonists for medical use” (Novo Nordisk A/S, priority 2014, dated 2020)
Starred links: 1 amine or outer side, 2 acyl side, 3 side chain; linkers in the order of their positions; H or OH if unused. Non-standard residues stand in square brackets, D forms with d. Residues, ends and D or L forms follow the SMILES beside them. Groups on a side chain read outwards from the residue. *: point of attachment. C18 diacid = O=C(O)CCCCCCCCCCCCCCCCC(=O)*; γGlu = O=C(O)[C@H](CCC(=O)[*:2])N[*:1]; AEEA = NCCOCCOCC(=O)O; Aib = CC(C)(N)C(=O)O

Tests used:
human glucagon receptor = biological target: T1, human glucagon receptor (Homo sapiens, UniProt P47871); assay: Assay (I)(b) glucagon receptor activation, CRE luciferase reporter gene assay in BHK cells; type: cell-based; settings: without presence of serum albumin; read-out: GlucagonR EC50 (pM), [Assay (I)(b)]
T1 construct: expressed in transfected cells; host or cells: membranes of BHK cells, clone BHK hGCGR A3*25
Description: The purpose of this example was to test the activity or potency, of the glucagon derivatives of the invention, in vitro. The in vitro potency is the measure of human GLP-1 receptor (GLP-1R) or glucagon receptor (glucagonR) activation, respectively, in a whole cell assay. In vitro potency was determined by measuring the response of human GLP-1 or glucagon receptor, respectively, in a reporter gene assay. The assay was performed in a stably transfected BHK cell line that expresses either the human GLP-1 receptor or the human glucagon receptor and contains the DNA for the cAMP response element (CRE) coupled to a promoter and the gene for firefly luciferase (CRE luciferase). […] When assay incubation was completed, the luciferase substrate (luciferin) was added and the enzyme converted luciferin to oxyluciferin and produces bioluminescence. The luminescence was measured as the readout for the assay. The cells used in this assay (clone pLJ6′-4-25) were BHK cells with BHK570 as a parent cell line expressing the CRE luciferase gene (clone BHK/KZ10-20-48) and were established by further transfection with the human glucagon receptor (clone pLJ6′ in pHZ-1 vector). The cells were cultured at 5% CO2 in DMEM medium with 10% FBS, 1×GlutaMAX, 1 mg/ml G418, 240 nM MTX (methotrexate) and 1% pen/strep (penicillin/streptomycin). They were aliquoted and stored in liquid nitrogen. Before each assay, an aliquot was taken up and washed three times in PBS before being suspended at the desired concentration in assay medium. For 96-well plates the suspension was made to give a final concentration of 5×10EE3 cells/well. The following chemicals were used in the assay: Pluronic F-68 (10%) (Gibco 2404), ovalbumin (Sigma A5503), DMEM w/o phenol red (Gibco 11880-028), 1 M Hepes (Gibco 15630), Glutamax 100× (Gibco 35050) and steadylite plus (PerkinElmer 6016757). Assay Medium consisted of DMEM w/o phenol red, 10 mM Hepes, 1× GlutaMAX, 2% Ovalbumin and 0.2% Pluronic F-68. Cell stocks were thawed in a 37° C. water bath. Cells were washed three times in PBS. The cells were counted and adjusted to 5×10EE3 cells/50 μl (1×10EE5 cells/ml) in Assay Medium. A 50 μl aliquot of cells was transferred to each well in the assay plate. Stocks of the test compounds and reference compounds were diluted to a concentration of […] in Assay Medium. Compounds were diluted 10-fold to give the following concentrations: 2×10EE-6 M, 2×10EE-7 M, 2×10EE-8 M; 2×10EE-9 M, 2×10EE-10 M, 2×10EE-11 M, 2×10EE-12 M and 2×10EE-13 M. For each compound a blank assay medium control was also included. A 50 μl aliquot of compound or blank was transferred from the dilution plate to the assay plate. Compounds were tested at the following final concentrations: 1×10EE-6 M, 1×10EE-7 M, 1×10EE-8 M; 1×10EE-9 M, 1×10EE-10 M, 1×10EE-11 M and 1×10EE-12 M and 1×10EE-13 M. The assay plate was incubated for 3 h in a 5% CO2 incubator at 37° C. The assay plate was removed from the incubator and allowed to stand at room temperature for 15 min. A 100 μl aliquot of steadylite plus reagent was added to each well of the assay plate (reagent is light sensitive). Each assay plate was covered with aluminum foil to protect it from light and shaken for 30 min at room temperature. Each assay plate was read in a Perkin Elmer TopCount NXT instrument. The data from the TopCount instrument was transferred to GraphPad Prism software. The software performed a non-linear regression (log(agonist) vs response-Variable slope (four parameter)). EC50 values were calculated by the software and reported in pM.

human GLP-1 receptor = biological target: T2, human GLP-1 receptor (Homo sapiens, UniProt P43220); assay: Assay (I)(a) GLP-1 receptor activation, CRE luciferase reporter gene assay in BHK cells; type: cell-based; settings: without presence of serum albumin; read-out: GLP-1R EC50 (pM) [Assay (I)(a)]
T2 construct: expressed in transfected cells; host or cells: membranes of BHK cells (parent BHKTS13), clone FCW467-12A
In short: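 Stable BHK clone expressing human GLP-1 receptor with CRE-driven firefly luciferase, 5×10EE3 cells/well in medium with 2% ovalbumin and 0.2% Pluronic F-68. Compounds at 1×10EE-13 to 1×10EE-6 M final, 3 h at 37° C.; luminescence read, EC50 (pM) from four-parameter fit.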

[1] = Assay (III) ThT fibrillation assay for physical stability; type: physicochemical; settings: 250 μM in 10 mM HEPES buffer, 37° C., shaking 960 rpm
Excerpt: The purpose of this assay is to assess the physical stability of the glucagon derivatives of the invention in aqueous solutions. Low physical stability of a peptide may lead to amyloid fibril formation, which is observed as well-ordered, thread-like macromolecular structures in the sample, which eventually may lead to gel formation. This has traditionally been measured by visual inspection of the sample. However, that kind of measurement is very subjective and depending on the observer. Therefore, the application of a small molecule indicator probe is much more advantageous. Thioflavin T (ThT) is such a probe and has a distinct fluorescence signature when binding to fibrils [Naiki et al. (1989) Anal. Biochem. 177, 244-249; LeVine (1999) Methods. Enzymol. 309, 274-284]. […] The constant t0 is the time needed to reach 50% of maximum fluorescence. The two important parameters describing fibril formation are the lag-time calculated by t0−2τ and the apparent rate constant kapp 1/τ. Samples were prepared freshly before each assay. Each sample composition is described in the legends. The pH of the sample was adjusted to the desired value using appropriate amounts of concentrated NaOH and HCl. Thioflavin T was added to the samples from a stock solution in H2O to a final concentration of 1 μM. Sample aliquots of 200 μl (250 μM of the glucagon derivative in 10 mM HEPES buffer, pH 7.5) were placed in a 96 well microtiter plate (Packard OptiPlate™-96, white polystyrene). Usually, four or eight replica of each sample (corresponding to one test condition) were placed in one column of wells. The plate was sealed with Scotch Pad (Qiagen). Incubation at given temperature, shaking and measurement of the ThT fluorescence emission were done in a Fluoroskan Ascent FL fluorescence platereader (Thermo Labsystems). The temperature was adjusted to 37° C. The plate was incubated with orbital shaking adjusted to 960 rpm with an amplitude of 1 mm. Fluorescence measurement was done using excitation through a 444 nm filter and measurement of emission through a 485 nm filter. Each run was initiated by incubating the plate at the assay temperature for 10 min. The plate was measured every 20 minutes for a desired period of time. Between each measurement, the plate was shaken and heated as described. After completion of the ThT assay the four or eight replica of each sample was pooled and centrifuged at 20000 rpm for 30 minutes at 18° C. The supernatant was filtered through a 0.22 μm filter and an aliquot was transferred to a HPLC vial. The concentration of peptide in the initial sample and in the filtered supernatant was determined by reverse phase HPLC using an appropriate standard as reference. The percentage fraction the concentration of the filtered sample constituted of the initial sample concentration was reported as the recovery. The measurement points were saved in Microsoft Excel format for further processing and curve drawing and fitting was performed using GraphPad Prism. The background emission from ThT in the absence of fibrils was negligible. The data points are typically a mean of four or eight samples and shown with standard deviation error bars. Only data obtained in the same experiment (i.e. samples on the same plate) are presented in the same graph ensuring a relative measure of fibrillation between experiments. The data set may be fitted to Eq. (1).

T2 sequence (P43220 24-463): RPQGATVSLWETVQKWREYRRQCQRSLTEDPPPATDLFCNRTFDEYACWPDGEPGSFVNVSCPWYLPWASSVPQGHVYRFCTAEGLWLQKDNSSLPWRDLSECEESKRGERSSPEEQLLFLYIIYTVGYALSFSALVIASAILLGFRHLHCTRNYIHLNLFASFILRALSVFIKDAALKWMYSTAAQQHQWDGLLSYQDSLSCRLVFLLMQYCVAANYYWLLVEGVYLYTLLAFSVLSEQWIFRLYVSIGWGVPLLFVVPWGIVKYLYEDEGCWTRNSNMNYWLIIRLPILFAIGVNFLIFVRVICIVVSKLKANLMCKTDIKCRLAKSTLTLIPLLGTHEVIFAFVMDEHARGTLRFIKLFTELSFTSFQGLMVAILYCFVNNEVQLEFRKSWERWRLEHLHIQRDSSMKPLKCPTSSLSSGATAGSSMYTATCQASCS
T1 sequence (P47871 26-477): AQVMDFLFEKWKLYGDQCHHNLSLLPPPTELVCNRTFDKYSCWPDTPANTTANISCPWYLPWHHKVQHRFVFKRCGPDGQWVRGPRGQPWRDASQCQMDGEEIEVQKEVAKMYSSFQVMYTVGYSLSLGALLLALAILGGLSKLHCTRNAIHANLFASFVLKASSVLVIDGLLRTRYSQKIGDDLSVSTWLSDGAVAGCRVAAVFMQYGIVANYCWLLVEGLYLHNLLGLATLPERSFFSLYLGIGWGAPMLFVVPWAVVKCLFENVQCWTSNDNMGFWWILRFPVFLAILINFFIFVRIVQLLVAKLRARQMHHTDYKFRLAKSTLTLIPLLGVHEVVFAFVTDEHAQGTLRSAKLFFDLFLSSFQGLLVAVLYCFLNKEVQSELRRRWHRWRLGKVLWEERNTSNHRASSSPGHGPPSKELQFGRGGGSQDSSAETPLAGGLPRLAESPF

EC50 (human glucagon receptor) [pM]	EC50 (human GLP-1 receptor) [pM]	ThT Assay Lag time (h) [Assay (III), pH 7.5] [1] [h]	SMILES
7	4	–	CC[C@H](C)[C@H](NC(=O)[C@H](CC(C)C)NC(=O)[C@H](Cc1c[nH]c2ccccc12)NC(=O)[C@H](CCC(N)=O)NC(=O)[C@@H](NC(=O)[C@H](Cc1ccccc1)NC(=O)[C@H](CC(=O)O)NC(=O)[C@H](CCCNC(=N)N)NC(=O)[C@H](C)NC(=O)[C@H](CCCNC(=N)N)NC(=O)[C@H](CCCNC(=N)N)NC(=O)[C@H](C)NC(=O)[C@H](CC(=O)O)NC(=O)[C@H](CC(C)C)NC(=O)[C@H](Cc1ccc(O)cc1)NC(=O)[C@H](CCCCN)NC(=O)[C@H](CO)NC(=O)[C@H](CC(C)C)NC(=O)[C@H](CC(=O)O)NC(=O)[C@H](CO)NC(=O)[C@@H](NC(=O)[C@H](Cc1ccccc1)NC(=O)[C@@H](NC(=O)CNC(=O)[C@H](CCC(N)=O)NC(=O)C(C)(C)NC(=O)[C@@H](N)Cc1c[nH]cn1)[C@@H](C)O)[C@@H](C)O)C(C)C)C(=O)N[C@@H](CCCCNC(=O)CC[C@H](NC(=O)CC[C@H](NC(=O)CC[C@H](NC(=O)CCCCCCCCCCCCCCCCC(=O)O)C(=O)O)C(=O)O)C(=O)O)C(=O)N[C@H](C(N)=O)[C@@H](C)O [Chem. 15, N^ε28-[(4S)-4-carboxy-4-[[(4S)-4-carboxy-4-[[(4S)-4-carboxy-4-(17-carboxyheptadecanoylamino)butanoyl]amino]butanoyl]amino]butanoyl]-[Aib2,Leu10,Ala16,Arg20,Ile27,Lys28]-Glucagon amide] (HELM PEPTIDE1{H.[Aib].Q.G.T.F.T.S.D.L.S.K.Y.L.D.A.R.R.A.R.D.F.V.Q.W.L.I.K.T.[am]}|PEPTIDE2{[O=C(O)CCCCCCCCCCCCCCCCC(=O)[*:2]].[gGlu].[gGlu].[gGlu]}$PEPTIDE1,PEPTIDE2,28:R3-4:R2$$$V2.0)
–	7	45.0	CC[C@H](C)[C@H](NC(=O)[C@H](CC(C)C)NC(=O)[C@H](Cc1c[nH]c2ccccc12)NC(=O)[C@H](C)NC(=O)[C@@H](NC(=O)[C@H](Cc1ccccc1)NC(=O)[C@H](CC(=O)O)NC(=O)[C@H](CCCNC(=N)N)NC(=O)[C@H](C)NC(=O)[C@H](CCCNC(=N)N)NC(=O)[C@H](CCCNC(=N)N)NC(=O)[C@H](CC(C)C)NC(=O)[C@H](CC(=O)O)NC(=O)[C@H](CC(C)C)NC(=O)[C@H](Cc1ccc(O)cc1)NC(=O)[C@H](CCCCN)NC(=O)[C@H](CO)NC(=O)[C@H](Cc1ccc(O)cc1)NC(=O)[C@H](CC(=O)O)NC(=O)[C@H](CO)NC(=O)[C@@H](NC(=O)[C@H](Cc1ccccc1)NC(=O)[C@@H](NC(=O)CNC(=O)[C@H](CCC(N)=O)NC(=O)C(C)(C)NC(=O)[C@@H](N)Cc1c[nH]cn1)[C@@H](C)O)[C@@H](C)O)C(C)C)C(=O)N[C@@H](CCCCNC(=O)CC[C@H](NC(=O)CC[C@H](NC(=O)COCCOCCNC(=O)COCCOCCNC(=O)CC[C@H](NC(=O)CCCCCCCCCCCCCCCCC(=O)O)C(=O)O)C(=O)O)C(=O)O)C(=O)N[C@H](C(N)=O)[C@@H](C)O [Chem. 33, N^ε28-[(4S)-4-carboxy-4-[[(4S)-4-carboxy-4-[[2-[2-[2-[[2-[2-[2-[[(4S)-4-carboxy-4-(17-carboxyheptadecanoylamino)butanoyl]amino]ethoxy]ethoxy]acetyl]amino]ethoxy]ethoxy]acetyl]amino]butanoyl]amino]butanoyl]-[Aib2,Leu16,Arg20,Ala24,Ile27,Lys28]-Glucagon amide] (H-H[Aib]QGTFTSDYSKYLDLRRARDFVAWLIK([γGlu-γGlu-AEEA-AEEA-γGlu-C18 diacid])T-NH2)
